Results from patent US20250032375A1, “SOLVENT MIXTURES COMPRISING 1,3-BUTYLENE GLYCOL AND TRIETHYL-CITRATE” (Givaudan SA, priority 2022, published 2025).
Where a name gives a salt, the structure may show the parent alone. Read-outs that look alike come from different tables or passages of the source.

Key:
[1] = Miscibility and stability in matrix and application; details: for miscibility and stability properties compared to DPG: fragrance oil matrix and Eau de Toilette (at 10%)
Source text: The miscibility and stability of the solvent mixture of the present invention was compared with those of DPG and the pure mixture ingredients. The miscibility with isopropyl myristate (IPM) and ethylene brassylate (EB) mimics the miscibility with a fragrance oil matrix.

[2] = Solubility by visual inspection
Protocol: (§1) If the sample is dissolved, there is low absorbance (close to zero), any turbidity (>0.5) indicates incomplete solution.

[3] = Solubility by absorption spectrometry (absorbance at 600 nm, 1 cm path)
Protocol: as §1

[4] = Solubility and storage stability of fragrance ingredients in TEC/1,3-butylene glycol 80/20 mixture; assay type: physicochemical; details: for solubility: t = 0, 5 min. heating at 50° C. + 8-10 hrs. stirring at room temperature
Protocol: In the table above, the solubility of single ingredients solubility has been summarized. […] Furthermore, the storage stability at 5 and 60° C. for 14 days have been tested.

[5] = Vanillin solubility in other solvents; assay type: physicochemical
[6] = 10% in EDT premix, 14 days 5° C.
[7] = 10% in EDT premix, t = 0 at room temperature
[8] = 10% in 1,3-butylene glycol (*), sample heated and cooled down to room temperature
[9] = 10% in 1:1 MIX (*), sample heated and cooled down to room temperature
[10] = 10% in 1:3 MIX (*), sample heated and cooled down to room temperature
[11] = 10% in 3:1 MIX (*), sample heated and cooled down to room temperature
[12] = 10% in TEC (*), sample heated and cooled down to room temperature
[13] = 1% in 1,3-butylene glycol (*), sample heated and cooled down to room temperature
[14] = 1% in 1:3 MIX (*), sample heated and cooled down to room temperature
[15] = 1% in 3:1 MIX (*), sample heated and cooled down to room temperature
[16] = 1% in TEC (*), sample heated and cooled down to room temperature

CC(O)CCO (centres unmarked) [1,3-butylene glycol]
miscibility and stability rating ([1]; 10% in EDT premix, 24 h UV): clear | miscibility and stability rating [1, 6]: clear | miscibility and stability rating [1, 7]: clear | miscibility and stability rating ([1]; 10% in IPM, 14 days 5° C.): biphasic, hazy | miscibility and stability properties compared to DPG [1]: show disadvantages when compared to DPG | miscibility and stability rating ([1]; pure, 14 days 5° C.): clear

O=c1ccc2ccccc2o1 [Coumarine Pure Crist, 1-benzopyran-2-one]
visual inspection [2, 8]: soluble | visual inspection [2, 9]: soluble | visual inspection [2, 10]: soluble | visual inspection [2, 11]: soluble | visual inspection [2, 12]: soluble | ultrasonic bath, spectrometer [3, 8]: 0.06 AU | ultrasonic bath, spectrometer [3, 9]: 0.05 AU | ultrasonic bath, spectrometer [3, 10]: 0.00 AU | ultrasonic bath, spectrometer [3, 11]: 0.02 AU | ultrasonic bath, spectrometer [3, 12]: 0.07 AU

CCOc1cc(C=O)ccc1O [Ethyl Vanilline, 3-Ethoxy-4-hydroxybenzaldehyde]
ultrasonic bath, spectrometer (30 %): 0.00 AU | ultrasonic bath, spectrometer (40 %): 0.04 AU

Cc1occc(=O)c1O [Maltol Lg Crist, 3-hydroxy-2-methyl pyran-4-one]
visual inspection [2, 13]: non soluble | visual inspection [2, 14]: soluble | visual inspection [2, 15]: soluble | visual inspection [2, 16]: non soluble | ultrasonic bath, spectrometer [3, 13]: solid | ultrasonic bath, spectrometer [3, 14]: 0.02 AU | ultrasonic bath, spectrometer [3, 15]: 0.02 AU | ultrasonic bath, spectrometer [3, 16]: solid

N#CC(=C1CCCCC1)c1ccccc1 [Peonile, 2-cyclohexylidene-2-phenylacetonitrile]
visual inspection ([2]; 10% in 1,3-butylene glycol): non soluble | visual inspection ([2]; 10% in 1:1 MIX): soluble | visual inspection ([2]; 10% in 1:3 MIX): soluble | visual inspection ([2]; 10% in 3:1 MIX): soluble | visual inspection ([2]; 10% in TEC): soluble | ultrasonic bath, spectrometer ([3]; 10% in 1,3-butylene glycol): >2 AU | ultrasonic bath, spectrometer ([3]; 10% in 1:1 MIX): 0.00 AU | ultrasonic bath, spectrometer ([3]; 10% in 1:3 MIX): 0.02 AU | ultrasonic bath, spectrometer ([3]; 10% in 3:1 MIX): 0.02 AU | ultrasonic bath, spectrometer ([3]; 10% in TEC): 0.02 AU

CCOC(=O)CC(O)(CC(=O)OCC)C(=O)OCC [TEC, Triethyl citrate]
miscibility and stability rating ([1]; 3% in EDT premix, 24 h UV): clear | miscibility and stability rating ([1]; 3% in EDT premix, 14 days 5° C.): clear | miscibility and stability rating ([1]; 3% in EDT premix, 14 days −10° C.): clear | miscibility and stability rating ([1]; 3% in EDT premix, t = 0 at room temperature): clear | miscibility and stability rating ([1]; 5% in EDT premix, 24 h UV): clear | miscibility and stability rating ([1]; 5% in EDT premix, 14 days 5° C.): clear | miscibility and stability rating ([1]; 5% in EDT premix, 14 days −10° C.): clear | miscibility and stability rating ([1]; 5% in EDT premix, t = 0 at room temperature): clear | miscibility and stability rating ([1]; 10% in EB, 24 h UV): clear | miscibility and stability rating ([1]; 10% in EB, 14 d 60° C.): clear | miscibility and stability rating ([1]; 10% in EB, 14 days 5° C.): clear | miscibility and stability rating ([1]; 10% in EDT premix, 24 h UV): clear | miscibility and stability rating ([1]; 10% in EDT premix, 14 d 60° C.): clear | miscibility and stability rating [1, 6]: clear | miscibility and stability rating ([1]; 10% in EDT premix, 14 days −10° C.): clear | miscibility and stability rating [1, 7]: clear | miscibility and stability rating ([1]; 10% in IPM, 24 h UV): clear | miscibility and stability rating ([1]; 10% in IPM, 14 d 60° C.): clear | miscibility and stability rating ([1]; 10% in IPM, 14 days 5° C.): clear | miscibility and stability properties compared to DPG [1]: show disadvantages when compared to DPG

COc1cc(C=O)ccc1O [vanillin, 4-hydroxy-3-methoxybenzaldehyde]
solubility ([4]; 15% in MIX 80/20): Solubility OK | solubility ([4]; 20% in MIX 80/20): Solubility OK | solubility ([4]; 25% in MIX 80/20): Solubility OK | amount that can be dissolved ([4]; in the solvent mixture of the present invention): at least 25% | amount that can be dissolved ([5]; in DPG, when saturation occurs): about 20% | amount that can be dissolved ([5]; in triethylcitrate (TEC)): less than 15%
